Each molecule was assayed against T1, recombinant HIV-1 protease (Human immunodeficiency virus type 1 group M subtype B, UniProt P04585) (assay: Fluorometric (FRET) enzymatic assay for the inhibition constant (Ki) against the HIV protease). Settings: not given.
T1 construct: recombinant HIV-1 protease; purchased Bachem Bioscience
Type: biochemical
From the text: Enzymatic Assay for Determining the Inhibition Constant (Ki) of Synthetic Compounds Prepared Against the HIV Protease
This is a fluorometric assay based on the cleavage by protease of a substrate carrying a donor group (EDANS, excitation at 340 nm and emission at 490 nm) and an acceptor group (DABCYL) on each side of the cleavage site, interacting together through fluorescence resonance energy transfer (FRET). Cleavage of the substrate by protease stops energy exchange between the two groups, resulting in a time-dependent increase in fluorescence intensity that is linearly related to the extent of substrate hydrolysis.
The enzymatic assay is done at 30° C. in a spectrophotometer microcuvet, in a total volume of 400 μL. The apparatus used for readings is a UV-visible Cary 1 spectrophotometer made by Varian. The reaction is run first in the absence of protease inhibitors for 2 min, using 355 μL of buffer at pH 4.7 (sodium acetate 100 mM, NaCl 1 M, EDTA 1 mM, DTT 1 mM, dimethylsulfoxide 10%, and BSA 1 mg/mL), 40 μL of substrate H-2930 from Molecular Probes (final concentration 10 μM) and 5 μL of recombinant HIV-1 protease (final concentration 18.3 nM) purchased from Bachem Bioscience. Fluorescence readings at […] are taken continuously during the reaction, allowing determination of the enzyme's initial velocity (v0). At the end of the 2 min incubation, the potential inhibitor at a defined concentration in a volume of 2 μL is added to the reaction, and fluorescence readings are taken for another 2 min, allowing determination of enzyme velocity (vi) in the presence of the inhibitory compound. Several concentrations of the putative inhibitors are tested in the assay. After calculation of vo and vi, the inhibition constant (Ki) of the compound is determined using the equation of Henderson: [formula]
and [I]=inhibitor concentration, [S ]=substrate concentration, Km=Michaelis-Menten constant, Kiapp =apparent Ki
Note that the Michaelis-Menten constant of HIV protease is determined by running the assay without inhibitors, using several concentrations of substrate, and plotting the results as a Cornish-Bowden graph with the ratio substrate concentration/velocity as the ordinate and substrate concentration as the abscissa.

Row | Ki | Compound
1 | 10 µM | OCc1ccc(CO[C@H](COCc2ccccc2)[C@@H](O)[C@H](O)[C@@H](COCc2ccccc2)OCc2ccc(CO)cc2)cc1 [Compound 45, 1,6-di-O-benzyl-2,5-di-O-(4-hydroxymethylbenzyl)-D-mannitol]
2 | 1.6 µM | O[C@@H]([C@H](O)[C@@H](COCc1ccc(F)cc1)OCc1ccc(F)cc1)[C@@H](COCc1ccc(F)cc1)OCc1ccc(F)cc1 [Compound 52, 1,2,5,6-tetra-O-(4-fluorobenzyl)-D-mannitol]
3 | 5.2 µM | O[C@@H]([C@H](O)[C@@H](COCc1ccc(Cl)cc1)OCc1ccccc1)[C@@H](COCc1ccc(Cl)cc1)OCc1ccccc1 [Compound 55, 1,6-di-O-(4-chlorobenzyl)-2,5-di-O-benzyl-D-mannitol]

Same assay, conditions: Table 1, benzylated D-mannitol derivatives; pH 4.7, 30° C., substrate 10 μM, protease 18.3 nM

Row | Compound | Ki
4 | O[C@@H]([C@H](O)[C@@H](COCc1ccccc1F)OCc1ccc(F)cc1)[C@@H](COCc1ccccc1F)OCc1ccc(F)cc1 [Compound 40, 1,6-di-O-(2-fluorobenzyl)-2,5-di-O-(4-fluorobenzyl)-D-mannitol] | 0.28 µM
5 | O=C(O)c1ccc(CO[C@H](COCc2ccccc2)[C@@H](O)[C@H](O)[C@@H](COCc2ccccc2)OCc2ccc(C(=O)O)cc2)cc1 [Compound 43, 1,6-di-O-benzyl-2,5-di-O-(4-carboxybenzyl)-D-mannitol] | 26 µM
6 | NC(=O)c1ccc(CO[C@H](COCc2ccccc2)[C@@H](O)[C@H](O)[C@@H](COCc2ccccc2)OCc2ccc(C(N)=O)cc2)cc1 [Compound 44, 1,6-di-O-benzyl-2,5-di-O-(4-carboxamidobenzyl)-D-mannitol] | 20 µM
7 | NCc1ccc(CO[C@H](COCc2ccccc2)[C@@H](O)[C@H](O)[C@@H](COCc2ccccc2)OCc2ccc(CN)cc2)cc1 [Compound 46, 1,6-di-O-benzyl-2,5-di-O-(4-aminomethylbenzyl)-D-mannitol] | 27 µM
8 | OCc1ccc(COC[C@@H](OCc2ccccc2)[C@@H](O)[C@H](O)[C@@H](COCc2ccc(CO)cc2)OCc2ccccc2)cc1 [Compound 48, 1,6-di-(4-hydroxymethylbenzyl)-2,5-dibenzyl-D-mannitol] | 1.2 µM
9 | O=Cc1ccc(CO[C@H](COCc2ccccc2)[C@@H](O)[C@H](O)[C@@H](COCc2ccccc2)OCc2ccc(C=O)cc2)cc1 [Compound 49, 1,6-di-O-benzyl-2,5-di-O-(4-formylbenzyl)-D-mannitol] | 28 µM
10 | Cc1ccc(COC[C@@H](OCc2ccc(C)cc2)[C@@H](O)[C@H](O)[C@@H](COCc2ccc(C)cc2)OCc2ccc(C)cc2)cc1 [Compound 50, 1,2,5,6-tetra-O-(4-methylbenzyl)-D-mannitol] | > 1 µM
11 | O=C(O)c1ccc(COC[C@@H](OCc2ccccc2)[C@@H](O)[C@H](O)[C@@H](COCc2ccc(C(=O)O)cc2)OCc2ccccc2)cc1 [Compound 51, 1,6-di-O-(4-carboxybenzyl)-2,5-di-O-benzyl-D-mannitol] | 5 µM
12 | O[C@@H]([C@H](O)[C@@H](COCc1cccc(F)c1)OCc1ccccc1)[C@@H](COCc1cccc(F)c1)OCc1ccccc1 [Compound 53, 1,6-di-O-(3-fluorobenzyl)-2,5-di-O-(benzyl)-D-mannitol] | 1.5 µM
13 | O[C@@H]([C@H](O)[C@@H](COCc1ccc(Br)cc1)OCc1ccccc1)[C@@H](COCc1ccc(Br)cc1)OCc1ccccc1 [Compound 54, 1,6-di-O-(4-bromobenzyl)-2,5-di-O-benzyl-D-mannitol] | > 3 µM
14 | Cc1ccc(CO[C@H](COCc2ccccc2F)[C@@H](O)[C@H](O)[C@@H](COCc2ccccc2F)OCc2ccc(C)cc2)cc1 [Compound 56, 1,6-di-O-(2-fluorobenzyl)-2,5-di-O-(4-methylbenzyl)-D-mannitol] | 3.5 µM
15 | O[C@@H]([C@H](O)[C@@H](COCc1ccccc1F)OCc1cccc(F)c1)[C@@H](COCc1ccccc1F)OCc1cccc(F)c1 [Compound 57, 1,6-di-O-(2-fluorobenzyl)-2,5-di-O-(3-fluorobenzyl)-D-mannitol] | 1.5 µM
16 | O[C@@H]([C@H](O)[C@@H](COCc1ccc(OCc2ccccc2)cc1)OCc1ccc(F)cc1)[C@@H](COCc1ccc(OCc2ccccc2)cc1)OCc1ccc(F)cc1 [Compound 58, 1,6-di-O-(4-benzyloxybenzyl)-2,5-di-O-(4-fluorobenzyl)-D-mannitol] | 5 µM
17 | COC(=O)c1ccc(CO[C@H](COCc2ccccc2)[C@@H](O)[C@H](O)[C@@H](COCc2ccccc2)OCc2ccc(C(=O)O)cc2)cc1 [Compound 59, 1,6-di-O-benzyl-2-O-(4-carboxybenzyl)-5-O-(4-carbomethoxybenzyl)-D-mannitol] | 1.4 µM
18 | N#Cc1ccc(CO[C@H](COCc2ccccc2)[C@@H](O)[C@H](O)[C@@H](COCc2ccccc2)OCc2ccc(C(N)=O)cc2)cc1 [Compound 60, 1,6-di-O-benzyl-2-O-(4-cyanobenzyl)-5-O-(4-carboxamidobenzyl)-D-mannitol] | 13 µM

The remaining lines, values ahead:

Row | Ki | Compound
19 | 23 µM | O=[N+]([O-])c1ccc(CO[C@H](COCc2ccccc2)[C@@H](O)[C@H](O)[C@@H](COCc2ccccc2)OCc2ccccc2)cc1 [Compound 61]
20 | 0.22 µM | O[C@@H]([C@H](O)[C@@H](COCc1ccccc1F)OCc1ccc(F)cc1)[C@@H](COCc1ccccc1F)OCc1ccccc1 [Compound 62, 1,6-di-O-(2-fluorobenzyl)-2-O-benzyl-5-O-(4-fluorobenzyl)-D-mannitol]
21 | 0.89 µM | O[C@@H]([C@H](O)[C@@H](COCc1ccccc1F)OCc1ccc(F)cc1)[C@@H](COCc1ccccc1)OCc1ccc(F)cc1 [Compound 63, 1-O-benzyl-6-O-(2-fluorobenzyl)-2,5-di-O-(4-fluorobenzyl)-D-mannitol]
22 | 0.9 µM | Oc1ccc(COC[C@@H](OCc2ccc(F)cc2)[C@@H](O)[C@H](O)[C@@H](COCc2ccc(OCc3ccccc3)cc2)OCc2ccc(F)cc2)cc1 [Compound 76, 1-O-(4-hydroxybenzyl)-6-O-(4-benzyloxybenzyl)-2,5-di-O-(4-fluorobenzyl)-D-mannitol]

Same assay, conditions: Table 2, tetra-substituted D-mannitol derivatives; pH 4.7, 30° C., substrate 10 μM, protease 18.3 nM

Row | Ki | Compound
23 | 190 µM | C=CCOC[C@@H](OCC=C)[C@@H](O)[C@H](O)[C@@H](COCC=C)OCC=C [Compound 78, 1,2,5,6-tetra-O-allyl-D-mannitol]
24 | 21 µM | O[C@@H]([C@H](O)[C@@H](COCC1CC1)OCC1CC1)[C@@H](COCC1CC1)OCC1CC1 [Compound 79, 1,2,5,6-tetra-O-cyclopropylmethyl-D-mannitol]
25 | > 1.25 µM | O[C@@H]([C@H](O)[C@@H](COCc1ccccc1)OCc1ccc2ccccc2c1)[C@@H](COCc1ccccc1)OCc1ccc2ccccc2c1 [Compound 80, 1,6-di-O-benzyl-2,5-di-O-(2-naphthylmethyl)-D-mannitol]
26 | 11 µM | C=CCO[C@H](COCc1ccccc1)[C@@H](O)[C@H](O)[C@@H](COCc1ccccc1)OCC=C [Compound 82, 1,6-di-O-benzyl-2,5-di-O-allyl-D-mannitol]
27 | 9 µM | O[C@@H]([C@H](O)[C@@H](COCc1ccccc1)OCC1CC1)[C@@H](COCc1ccccc1)OCC1CC1 [Compound 83, 1,6-di-O-benzyl-2,5-di-O-cyclopropylmethyl-D-mannitol]
28 | > 1 µM | O[C@@H]([C@H](O)[C@@H](COCc1ccccc1)OCC=Cc1ccccc1)[C@@H](COCc1ccccc1)OCC=Cc1ccccc1 [Compound 84, 1,6-di-O-benzyl, 2,5-di-O-cinnamyl-D-mannitol]
29 | > 50 µM | O[C@@H]([C@H](O)[C@@H](COCc1ccccc1)OCc1ccncc1)[C@@H](COCc1ccccc1)OCc1ccncc1 [Compound 86, 1,6-di-O-benzyl-2,5-di-O-(4-pyridylmethyl)-D-mannitol]
30 | 28 µM | O[C@@H]([C@H](O)[C@@H](COCc1ccccc1)OCc1ccccn1)[C@@H](COCc1ccccc1)OCc1ccccn1 [Compound 88, 1,6-di-O-benzyl-2,5-di-O-(2-pyridylmethyl)-D-mannitol]
31 | 16 µM | O[C@@H]([C@H](O)[C@@H](COCC1CC1)OCc1ccccc1)[C@@H](COCC1CC1)OCc1ccccc1 [Compound 89, 1,6-di-O-cyclopropylmethyl-2,5-di-O-dibenzyl-D-mannitol]
32 | 12 µM | C=CCOC[C@@H](OCc1ccccc1)[C@@H](O)[C@H](O)[C@@H](COCC=C)OCc1ccccc1 [Compound 90, 1,6-di-O-allyl-2,5-di-O-benzyl-D-mannitol]
33 | 0.4 µM | O[C@@H]([C@H](O)[C@@H](COCc1cccs1)OCc1ccc(F)cc1)[C@@H](COCc1cccs1)OCc1ccc(F)cc1 [Compound 93, 1,6-di-O-(2-thienylmethyl)-2,5-di-O-(4-fluorophenylmethyl)-D-mannitol]
34 | > 1 µM | O[C@@H]([C@H](O)[C@@H](COCC=Cc1ccccc1)OCc1ccccc1)[C@@H](COCC=Cc1ccccc1)OCc1ccccc1 [Compound 94, 1,6-di-O-cinnamyl-2,5-di-O-benzyl-D-mannitol]
